From patent US20230218632A1, “CYCLIC SULFONAMIDE DERIVATIVES AS TRAP1 MODULATORS AND USES THEREOF” (Amathus Therapeutics, Inc., priority 2020, published 2023)

Target: T1, TRAP1 enzyme (Homo sapiens, UniProt Q12931)
T1 sequence (Q12931 60-704): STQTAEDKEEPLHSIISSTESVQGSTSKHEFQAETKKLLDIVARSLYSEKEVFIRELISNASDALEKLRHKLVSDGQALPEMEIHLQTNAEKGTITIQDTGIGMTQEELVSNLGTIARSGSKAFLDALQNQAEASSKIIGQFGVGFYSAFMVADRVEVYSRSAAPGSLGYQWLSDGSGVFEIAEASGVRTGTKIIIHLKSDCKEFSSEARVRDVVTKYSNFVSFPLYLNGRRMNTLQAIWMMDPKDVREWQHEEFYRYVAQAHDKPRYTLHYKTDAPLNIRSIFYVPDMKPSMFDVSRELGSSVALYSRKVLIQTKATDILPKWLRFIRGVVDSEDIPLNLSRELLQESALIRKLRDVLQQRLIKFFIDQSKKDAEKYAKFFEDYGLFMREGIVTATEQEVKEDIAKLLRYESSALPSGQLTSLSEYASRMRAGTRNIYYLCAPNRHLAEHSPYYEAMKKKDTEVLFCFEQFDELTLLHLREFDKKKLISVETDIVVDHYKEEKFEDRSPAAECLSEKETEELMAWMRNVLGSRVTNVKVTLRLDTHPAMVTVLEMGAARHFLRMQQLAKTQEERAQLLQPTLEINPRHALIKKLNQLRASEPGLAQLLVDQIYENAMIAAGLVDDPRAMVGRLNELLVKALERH
Test: ADP Glo assay (ATPase activity of TRAP1)
Type: biochemical
How it was run: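 150 nM TRAP1 preincubated 30 min at 37 °C with compound (0.79–100 µM) in 25 mM Pipes pH 7.5, 40 mM KCl, 0.05 mM MgCl2; reaction started with 20 µM ATP, 60 min at 37 °C. ADP quantified by ADP-Glo luminescence against an ATP/ADP standard curve; Emax and EC50 from sigmoidal fits of activation.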

EC50 (150 nM Trap1, 20 µM ATP, concentration for half maximal activation, read-out: ADP GLO DRC: GeoMean EC50): < 20 µM
Emax (maximal percent activation, read-out: ADP GLO DRC: Mean Emax): 150 to 200%
Structure (SMILES): O=C(Nc1ccc2c(c1)S(=O)(=O)N(c1ccc(Br)cc1)CCO2)c1cnc(-c2ccccc2)[nH]1 [Compound 1331, N-(2-(4-bromophenyl)-1,1-dioxido-3,4-dihydro-2H-benzo[b][1,4,5]oxathiazepin-8-yl)-2-phenyl-1H-imidazole-5-carboxamide]
